From patent US10968163B2, “Alpha-truxillic acid derivatives and pharmaceutical compositions thereof” (The Research Foundation for the State University of New York, priority 2016, dated 2021)

Key:
[1] = compared with morphine; cited from earlier work
[2] = target: FABP3 (Homo sapiens (Human), UniProt P05413); test: DAUDA, ANS or NBD-stearate fluorescence displacement binding assay, FABP3; conditions: average ± S.E. of at least three independent experiments
[3] = target: FABP7 (Homo sapiens (Human), UniProt O15540); test: DAUDA, ANS or NBD-stearate fluorescence displacement binding assay, FABP7; conditions: average ± S.E. of at least three independent experiments
[4] = target: T1, FABP5 (Homo sapiens (Human), UniProt Q01469); test: DAUDA, ANS or NBD-stearate fluorescence displacement binding assay, FABP5; conditions: average ± S.E. of at least three independent experiments
Method: FABP5 (30 μg), NBD-stearate (1 μM), and a competitor test compound were incubated in 30 mM Tris-HCl, 100 mM NaCl buffer (pH 7.6). […] The initial assay was run with buffer (30 mM Tris-HCl buffer), negative controls (buffer and NBD-stearate), positive controls (buffer, NBD-stearate, FABP5), and experimental wells with a variable test compound added (arachidonic acid or one of the 48 test compounds) at 10 μM. […] GraphPad Prism was also used to determine the Ki of these select competitors from the equation Ki=IC50/(1+([NBD-stearate]/Kd)). The Kd of NBD-stearate for FABP5 had been determined previously through incubating FABP5 with increasing concentrations of NBD-stearate.
Determination of Ki was derived from DAUDA or NBD-stearate displacement assays (see Table 1).

[5] = target: T1, FABP5; conditions: read-out: Kd of NBD-stearate for FABP5; cited from earlier work
[6] = tested on: formalin induced pain; conditions: formalin induced mouse models; cited from earlier work

Chain of FABP3 (P05413 whole entry, species assumed): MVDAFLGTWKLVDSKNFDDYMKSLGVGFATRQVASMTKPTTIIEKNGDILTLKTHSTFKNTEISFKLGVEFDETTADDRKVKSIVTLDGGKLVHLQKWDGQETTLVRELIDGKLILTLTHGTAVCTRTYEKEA
Chain of FABP7 (O15540 whole entry, species assumed): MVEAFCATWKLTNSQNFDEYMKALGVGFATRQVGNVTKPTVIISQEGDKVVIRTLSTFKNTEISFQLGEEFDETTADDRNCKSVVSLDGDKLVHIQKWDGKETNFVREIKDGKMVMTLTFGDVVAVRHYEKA
T1 sequence (Q01469 whole entry, species assumed): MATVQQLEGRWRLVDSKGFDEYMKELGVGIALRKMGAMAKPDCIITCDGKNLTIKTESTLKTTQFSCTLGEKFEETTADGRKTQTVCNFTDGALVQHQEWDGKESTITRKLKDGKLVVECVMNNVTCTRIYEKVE

Row | SMILES | Ki [2] [µM] | Ki [3] [nM] | Ki [4] [nM] | antinociceptive properties [1] | Kd [5] [nM] | antinociceptive effect in early and late stage pain [6]
1 | COc1cc([C@H]2[C@H](C(=O)O[C@@H]3C[C@@H]4[C@@H](CN(C)C[C@@H]4C)[C@@H]3C)[C@H](c3ccc(O)c(OC)c3)[C@H]2C(=O)O[C@@H]2C[C@@H]3[C@@H](CN(C)C[C@@H]3C)[C@@H]2C)ccc1O [(−)-incarvillateine] | – | – | – | antinociceptive properties on the same level as morphine | – | –
2 | O=C(O)[C@H]1[C@@H](c2ccccc2)[C@H](C(=O)OCc2ccccc2)[C@@H]1c1ccccc1 [Compound 3a, Benzyl α-2,4-diphenylcyclobutane-1,3-dicarboxylate] | > 10 | – | – | – | – | –
3 | COc1ccc(COC(=O)[C@H]2[C@@H](c3ccccc3)[C@H](C(=O)O)[C@@H]2c2ccccc2)cc1 [Compound 3b, 4-Methoxybenzyl α-2,4-diphenylcyclobutane-1,3-dicarboxylate] | > 10 | 1140 ± 60 | 2150 ± 100 | – | – | –
4 | O=C(O)[C@H]1[C@H](c2ccccc2)[C@H](C(=O)OCc2ccc(F)cc2)[C@H]1c1ccccc1 [Compound 3c, 4-Fluorobenzyl α-2,4-diphenylcyclobutane-1,3-dicarboxylate] | > 10 | 1650 ± 210 | 2420 ± 180 | – | – | –
5 | O=C(O)[C@H]1[C@H](c2ccccc2)[C@H](C(=O)OCc2ccc(Br)cc2)[C@H]1c1ccccc1 [Compound 3d, 4-Bromobenzyl α-2,4-diphenylcyclobutane-1,3-dicarboxylate] | > 10 | 1250 ± 30 | 1580 ± 160 | – | – | –
6 | O=C(O)[C@H]1[C@H](c2ccccc2)[C@H](C(=O)Oc2ccccc2I)[C@H]1c1ccccc1 [Compound 3e] | 1.18 ± 0.1 | 940 ± 340 | 1340 ± 210 | – | – | –
7 | O=C(O)[C@H]1[C@H](c2ccccc2)[C@H](C(=O)Oc2cccc(-c3ccccc3)c2)[C@H]1c1ccccc1 [Compound 3h, Biphenyl-3-yl α-2,4-Diphenylcyclobutane-1,3-dicarboxylate] | 9.75 ± 0.79 | 740 ± 170 | – | – | – | –
8 | O=C(O)[C@H]1[C@H](c2ccccc2)[C@H](C(=O)Oc2ccc(-c3ccccc3)cc2)[C@H]1c1ccccc1 [Compound 3i] | 3.93 ± 0.16 | 2270 ± 30 | 2520 ± 360 | – | – | –
9 | O=C(O)[C@H]1[C@H](c2ccccc2)[C@H](C(=O)Oc2ccccc2-c2ccccc2O)[C@H]1c1ccccc1 [Compound 3j, 2′-HO-biphenyl-2-yl α-2,4-diphenylcyclobutane-1,3-dicarboxylate] | 3.52 ± 0.53 | 540 ± 180 | 1590 ± 430 | – | – | –
10 | O=C(O)[C@H]1[C@H](c2ccccc2)[C@H](C(=O)Oc2ccc(Cl)c(Cl)c2Cl)[C@H]1c1ccccc1 [Compound 3k] | 2.98 ± 0.85 | 540 ± 20 | – | – | – | –
11 | O=C(O)[C@H]1[C@H](c2ccccc2)[C@H](C(=O)OC2Cc3ccccc3C2)[C@H]1c1ccccc1 [Compound 3m, Indan-2-yl α-2,4-diphenylcyclobutane-1,3-dicarboxylate] | > 10 | 2410 ± 90 | – | – | – | –
12 | C#Cc1cccc2c(OC(=O)[C@H]3[C@@H](c4ccccc4)[C@H](C(=O)O)[C@@H]3c3ccccc3)cccc12 [Compound 3p, 5-Ethynylnaphth-1-yl α-2,4-diphenylcyclobutane-1,3-dicarboxylate] | 4.94 ± 0.31 | 1030 ± 220 | 3920 ± 750 | – | – | –
13 | O=C(O)[C@H]1[C@H](c2ccccc2)[C@H](C(=O)OCC2c3ccccc3-c3ccccc32)[C@H]1c1ccccc1 [Compound 3q, 9-Fluorenylmethyl α-2,4-diphenylcyclobutane-1,3-dicarboxylate] | > 10 | 2700 ± 620 | 2560 ± 160 | – | – | –
14 | O=C(O)[C@H]1[C@@H](c2ccccc2)[C@H](C(=O)OCC(F)(F)F)[C@@H]1c1ccccc1 [Compound 3r, 2,2,2-Trifluoroethyl α-2,4-diphenylcyclobutane-1,3-dicarboxylate] | > 10 | – | > 10000 | – | – | –
15 | O=C(O)C1C(c2ccccc2)C(C(=O)OC2CCCCC2)C1c1ccccc1 (stereo not drawn) [Compound 3s, Cyclohexyl α-2,4-diphenylcyclobutane-1,3-dicarboxylate] | > 10 | 500 ± 110 | – | – | – | –
16 | CCOCCOCCOCCn1cc(-c2cccc(OC(=O)[C@H]3[C@@H](c4ccccc4)[C@H](C(=O)O)[C@@H]3c3ccccc3)c2)nn1 [Compound 3t] | > 10 | 1060 ± 70 | > 10000 | – | – | –
17 | CCCCCCC(CCCCCCCCCCC(=O)O)N(C)c1ccc([N+](=O)[O-])c2nonc12 (centres unmarked) [NBD-stearate] | – | – | – | – | 160 | –
18 | O=C(O)C1C(c2ccccc2)C(C(=O)O)C1c1ccccc1 (stereo not drawn) [α-truxillic acid, α-2,4-diphenylcyclobutene-1,3-dicarboxylic Acid] | – | – | – | – | – | best antinociceptive agent in both early and late stage pain

Continued, in another order:

Row | Ki [2] [µM] | Ki [3] [nM] | Ki [4] [nM] | SMILES | antinociceptive properties [1] | Kd [5] [nM] | antinociceptive effect in early and late stage pain [6]
19 | 1.06 ± 0.19 | 2120 ± 190 | > 10000 | COc1cc([C@H]2[C@H](C(=O)O)[C@H](c3ccc(O)c(OC)c3)[C@H]2C(=O)Oc2cccc3ccccc23)ccc1O [Compound 4a, 1-Naphthyl α-2,4-di(3-methoxy-4-hydroxy)cyclobutane-1,3-dicarboxylate] | – | – | –
20 | – | – | > 10000 | O=C(O)[C@H]1[C@@H](c2ccc(O)cc2)[C@H](C(=O)Oc2cccc3ccccc23)[C@@H]1c1ccc(O)cc1 [Compound 4d] | – | – | –
21 | 0.4 ± 0.08 | 400 ± 30 | – | COc1ccccc1C1C(C(=O)O)C(c2ccccc2OC)C1C(=O)O[C@@H]1CCCC[C@H]1c1ccccc1 (stereo partly drawn) [Compound 4e, (1R,2S)-2-Phenylcyclohexyl α-2,4-di(2-methoxylphenyl)cyclobutane-1,3-dicarboxylate] | – | – | –
22 | > 10 | > 10000 | – | O=C(O)[C@H]1[C@H](c2ccccc2Cl)[C@H](C(=O)OC2CCCC[C@H]2c2ccccc2)[C@H]1c1ccccc1Cl (stereo partly drawn) [Compound 4f, (1R,2S)-2-Phenylcyclohexyl α-2,4-di(2-chlorophenyl)cyclobutane-1,3-dicarboxyliate] | – | – | –
23 | > 10 | – | – | O=C(O)[C@H]1[C@H](c2c(Cl)cccc2Cl)[C@H](C(=O)OC2CCCC[C@H]2c2ccccc2)[C@H]1c1c(Cl)cccc1Cl (stereo partly drawn) [Compound 4g, (1R,2S)-2-Phenylcyclohexyl α-2,4-di(2,6-dichlorophenyl)cyclobutane-1,3-dicarboxylate] | – | – | –
24 | > 10 | > 10000 | – | O=C(O)C1C(c2ccccc2Br)C(C(=O)O[C@@H]2CCCC[C@H]2c2ccccc2)C1c1ccccc1Br (stereo partly drawn) [Compound 4h, (1R,2S)-2-Phenylcyclohexyl α-2,4-di(2-bromophenyl)cyclobutane-1,3-dicarboxylate] | – | – | –
25 | > 10 | > 10000 | – | COc1ccccc1[C@H]1[C@H](C(=O)O)[C@H](c2ccccc2OC)[C@H]1C(=O)OCC1c2ccccc2-c2ccccc21 [Compound 4j, 9-Fluorenylmethyl α-2,4-di(2-methoxylphenyl)cyclobutane-1,3-dicarboxylate] | – | – | –
26 | > 10 | 3540 ± 770 | – | O=C(O)[C@H]1[C@H](c2ccccc2Cl)[C@H](C(=O)OCC2c3ccccc3-c3ccccc32)[C@H]1c1ccccc1Cl [Compound 4k, 9-Fluorenylmethyl α-2,4-di(2-chlorophenyl)cyclobutane-1,3-dicarboxylate] | – | – | –
